Key:
Assay type in all cases: cell-based
Conditions in all cases: hPBMC Cell; 24 hours
[1] = biological target: T1, WEE1 (Homo sapiens, UniProt P30291+Q96SW2); assay: Western blot degradation of WEE1
T1 construct: expression of target proteins in cells; endogenous in cells
Procedure: (§1) Conventional Western blot assay was performed to evaluate the effects of the compounds of the present disclosure on the expression of target proteins in cells.
(§2) (1) Cell Seeding and Protein Harvesting: The selected cells were processed according to the cell seeding procedure and protein harvesting procedure in Table II-2.
(§3) (2) To the collected supernatant, 5×SDS sample loading buffer was added, followed by denaturation at 95 °C for 5 minutes. The denatured samples were then separated by SDS-PAGE electrophoresis on a polyacrylamide gel. Proteins were transferred to a nitrocellulose membrane (0.45 μm NC membrane), blocked with blocking buffer at room temperature for 1 hour, and subjected to antibody incubation and development procedures according to the antibody manufacturer's instructions (Cell Signaling Technology).
(§4) Half-Maximal Degradation Concentration value (the drug concentration required for degrading proteins by 50%, abbreviated as DC50) reads method: comparing the grayscale values of Western blot bands from drug-treated samples with those from blank DMSO-treated controls, and identifying the drug concentration range at which the grayscale value is half that of the DMSO-treated control bands.
(§5) DC50 values can be calculated using ImageJ software to measure grayscale values of Western blot bands from drug-treated samples. The concentration-response curve is fitted to estimate the drug concentration corresponding to half the grayscale value.
(§6) Target protein remaining (%) refers to the percentage of target protein remaining in cells after treatment with protein degrader compounds.
(§7) Calculation method for target protein remaining (%): Use ImageJ software to measure grayscale values of Western blot bands from drug (protein degrader)-treated samples. The grayscale value of drug-treated bands is divided by that of internal control protein bands, and the resulting quotient is normalized to obtain the relative percentage of remaining target protein after protein degrader treatment.
(§8) Target protein degradation rate (%)=1−target protein remaining (%).

[2] = biological target: T2, IKZF2 (Homo sapiens, UniProt Q96SW2+Q9UKS7); assay: Western blot degradation of IKZF2
T2 construct: expression of target proteins in cells; endogenous in cells
Procedure: as §1, §2, §3, §4, §5, §6, §7, §8

[3] = biological target: T3, IKZF1 (Homo sapiens, UniProt Q13422+Q96SW2); assay: Western blot degradation of IKZF1
T3 construct: expression of target proteins in cells; endogenous in cells
Procedure: as §1, §2, §3, §4, §5, §6, §7, §8

[4] = biological target: T4, GSPT1 (Homo sapiens, UniProt P15170+Q96SW2); assay: Western blot degradation of GSPT1
T4 construct: expression of target proteins in cells; endogenous in cells
Procedure: as §1, §2, §3, §4, §5, §6, §7, §8

[5] = biological target: T5, CK1α (Homo sapiens, UniProt P48729+Q96SW2); assay: Western blot degradation of CK1α
T5 construct: expression of target proteins in cells; endogenous in cells
Procedure: as §1, §2, §3, §4, §5, §6, §7, §8

[6] = biological target: T6, IKZF3 (Homo sapiens, UniProt Q96SW2+Q9UKT9); assay: Western blot degradation of IKZF3
T6 construct: expression of target proteins in cells; endogenous in cells
Procedure: as §1, §2, §3, §4, §5, §6, §7, §8

T4 sequence (P15170 whole entry): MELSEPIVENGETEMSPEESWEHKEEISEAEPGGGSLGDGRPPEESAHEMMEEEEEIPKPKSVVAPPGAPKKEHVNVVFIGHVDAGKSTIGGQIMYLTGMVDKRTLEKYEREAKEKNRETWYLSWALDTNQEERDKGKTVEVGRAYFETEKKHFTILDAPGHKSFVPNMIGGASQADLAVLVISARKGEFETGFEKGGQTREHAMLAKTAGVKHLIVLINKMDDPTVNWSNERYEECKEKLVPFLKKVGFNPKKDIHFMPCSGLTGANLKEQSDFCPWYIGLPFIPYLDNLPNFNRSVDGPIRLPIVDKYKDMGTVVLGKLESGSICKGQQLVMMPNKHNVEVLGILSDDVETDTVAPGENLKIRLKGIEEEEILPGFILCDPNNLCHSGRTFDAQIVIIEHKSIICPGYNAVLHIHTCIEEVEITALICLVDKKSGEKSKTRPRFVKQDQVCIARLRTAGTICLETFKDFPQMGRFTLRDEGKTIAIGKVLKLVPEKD
T4 sequence (Q96SW2 whole entry): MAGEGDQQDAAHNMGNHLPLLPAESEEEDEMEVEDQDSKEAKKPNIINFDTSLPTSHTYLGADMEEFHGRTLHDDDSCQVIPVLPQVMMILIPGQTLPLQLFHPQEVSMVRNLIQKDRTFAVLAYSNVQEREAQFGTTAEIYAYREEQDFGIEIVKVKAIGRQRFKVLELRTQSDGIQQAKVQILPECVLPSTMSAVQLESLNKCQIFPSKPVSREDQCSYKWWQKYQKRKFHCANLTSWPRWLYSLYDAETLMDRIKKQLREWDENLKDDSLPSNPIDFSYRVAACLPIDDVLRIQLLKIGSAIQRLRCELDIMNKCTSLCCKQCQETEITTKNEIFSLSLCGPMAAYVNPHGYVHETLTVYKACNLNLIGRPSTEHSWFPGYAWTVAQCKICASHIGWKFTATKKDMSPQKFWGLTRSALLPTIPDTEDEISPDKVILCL
T4 sequence (Q16531 whole entry partner): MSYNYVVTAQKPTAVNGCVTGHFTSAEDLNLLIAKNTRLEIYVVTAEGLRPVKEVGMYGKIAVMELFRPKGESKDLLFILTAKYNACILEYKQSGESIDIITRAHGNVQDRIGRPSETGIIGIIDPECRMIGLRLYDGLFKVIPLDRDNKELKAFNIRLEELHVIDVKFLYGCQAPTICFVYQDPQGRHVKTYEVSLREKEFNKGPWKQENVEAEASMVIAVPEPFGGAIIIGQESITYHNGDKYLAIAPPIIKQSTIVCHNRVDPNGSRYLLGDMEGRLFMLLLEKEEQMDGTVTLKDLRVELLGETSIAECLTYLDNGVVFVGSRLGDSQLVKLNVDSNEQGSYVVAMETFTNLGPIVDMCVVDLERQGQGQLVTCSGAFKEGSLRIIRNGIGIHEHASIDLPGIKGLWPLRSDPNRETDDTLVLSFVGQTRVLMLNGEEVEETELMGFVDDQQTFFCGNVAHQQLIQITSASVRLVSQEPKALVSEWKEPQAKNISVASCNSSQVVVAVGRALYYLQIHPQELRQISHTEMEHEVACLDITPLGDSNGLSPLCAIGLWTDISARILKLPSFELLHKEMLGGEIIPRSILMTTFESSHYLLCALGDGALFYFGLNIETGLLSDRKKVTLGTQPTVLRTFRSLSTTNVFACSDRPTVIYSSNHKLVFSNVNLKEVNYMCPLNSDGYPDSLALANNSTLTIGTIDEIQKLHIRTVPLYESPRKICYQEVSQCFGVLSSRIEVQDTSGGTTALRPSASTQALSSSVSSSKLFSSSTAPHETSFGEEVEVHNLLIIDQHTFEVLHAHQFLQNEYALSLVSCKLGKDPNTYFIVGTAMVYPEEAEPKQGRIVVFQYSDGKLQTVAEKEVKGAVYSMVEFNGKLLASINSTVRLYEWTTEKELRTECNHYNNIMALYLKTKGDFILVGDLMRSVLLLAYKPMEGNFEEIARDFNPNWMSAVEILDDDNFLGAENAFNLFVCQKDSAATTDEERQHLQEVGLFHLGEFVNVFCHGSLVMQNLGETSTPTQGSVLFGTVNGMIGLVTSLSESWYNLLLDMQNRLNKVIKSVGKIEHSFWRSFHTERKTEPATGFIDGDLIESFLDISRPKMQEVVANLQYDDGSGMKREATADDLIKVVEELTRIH
T5 sequence (P48729 whole entry): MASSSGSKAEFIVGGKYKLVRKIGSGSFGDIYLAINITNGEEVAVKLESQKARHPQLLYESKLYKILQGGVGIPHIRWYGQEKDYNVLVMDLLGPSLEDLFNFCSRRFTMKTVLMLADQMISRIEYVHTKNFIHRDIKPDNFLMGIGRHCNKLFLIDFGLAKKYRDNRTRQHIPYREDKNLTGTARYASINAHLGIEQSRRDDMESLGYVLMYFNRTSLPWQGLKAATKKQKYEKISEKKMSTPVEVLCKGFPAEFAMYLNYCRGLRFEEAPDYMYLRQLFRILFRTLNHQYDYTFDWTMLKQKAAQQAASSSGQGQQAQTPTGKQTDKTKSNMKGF
T5 sequence (Q96SW2 whole entry): as the sequence (Q96SW2 whole entry) above
T5 sequence (Q16531 whole entry partner): as the sequence (Q16531 whole entry partner) above
T3 sequence (Q13422 whole entry): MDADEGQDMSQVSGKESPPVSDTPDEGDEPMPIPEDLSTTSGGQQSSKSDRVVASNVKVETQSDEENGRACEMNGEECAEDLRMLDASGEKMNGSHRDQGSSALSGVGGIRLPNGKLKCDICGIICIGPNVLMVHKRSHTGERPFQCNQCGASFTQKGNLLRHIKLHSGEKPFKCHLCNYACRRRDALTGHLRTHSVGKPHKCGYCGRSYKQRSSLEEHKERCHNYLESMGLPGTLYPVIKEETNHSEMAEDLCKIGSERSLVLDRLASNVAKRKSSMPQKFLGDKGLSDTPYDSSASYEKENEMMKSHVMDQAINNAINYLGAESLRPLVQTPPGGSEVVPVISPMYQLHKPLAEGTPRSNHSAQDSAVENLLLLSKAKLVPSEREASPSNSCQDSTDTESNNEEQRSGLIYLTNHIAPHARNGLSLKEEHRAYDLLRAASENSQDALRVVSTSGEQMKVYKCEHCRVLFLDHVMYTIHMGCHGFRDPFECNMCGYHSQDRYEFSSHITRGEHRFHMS
T3 sequence (Q96SW2 whole entry): as the sequence (Q96SW2 whole entry) above
T3 sequence (Q16531 whole entry partner): as the sequence (Q16531 whole entry partner) above
T2 sequence (Q9UKS7 whole entry): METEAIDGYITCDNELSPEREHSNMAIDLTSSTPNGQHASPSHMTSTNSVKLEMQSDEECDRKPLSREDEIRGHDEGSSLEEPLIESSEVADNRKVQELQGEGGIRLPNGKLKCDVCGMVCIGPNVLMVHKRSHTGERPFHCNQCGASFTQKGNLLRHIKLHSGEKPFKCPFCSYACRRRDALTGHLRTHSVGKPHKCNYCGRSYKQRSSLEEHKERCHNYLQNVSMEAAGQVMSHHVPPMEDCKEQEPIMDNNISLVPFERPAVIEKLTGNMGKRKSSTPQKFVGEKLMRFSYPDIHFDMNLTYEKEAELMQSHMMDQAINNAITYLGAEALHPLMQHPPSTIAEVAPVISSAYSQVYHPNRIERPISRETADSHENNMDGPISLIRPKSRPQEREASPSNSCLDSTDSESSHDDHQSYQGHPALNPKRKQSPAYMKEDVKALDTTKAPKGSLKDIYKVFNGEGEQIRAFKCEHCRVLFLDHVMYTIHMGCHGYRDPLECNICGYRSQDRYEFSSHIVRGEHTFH
T2 sequence (Q96SW2 whole entry): as the sequence (Q96SW2 whole entry) above
T2 sequence (Q16531 whole entry partner): as the sequence (Q16531 whole entry partner) above
T1 sequence (P30291 whole entry): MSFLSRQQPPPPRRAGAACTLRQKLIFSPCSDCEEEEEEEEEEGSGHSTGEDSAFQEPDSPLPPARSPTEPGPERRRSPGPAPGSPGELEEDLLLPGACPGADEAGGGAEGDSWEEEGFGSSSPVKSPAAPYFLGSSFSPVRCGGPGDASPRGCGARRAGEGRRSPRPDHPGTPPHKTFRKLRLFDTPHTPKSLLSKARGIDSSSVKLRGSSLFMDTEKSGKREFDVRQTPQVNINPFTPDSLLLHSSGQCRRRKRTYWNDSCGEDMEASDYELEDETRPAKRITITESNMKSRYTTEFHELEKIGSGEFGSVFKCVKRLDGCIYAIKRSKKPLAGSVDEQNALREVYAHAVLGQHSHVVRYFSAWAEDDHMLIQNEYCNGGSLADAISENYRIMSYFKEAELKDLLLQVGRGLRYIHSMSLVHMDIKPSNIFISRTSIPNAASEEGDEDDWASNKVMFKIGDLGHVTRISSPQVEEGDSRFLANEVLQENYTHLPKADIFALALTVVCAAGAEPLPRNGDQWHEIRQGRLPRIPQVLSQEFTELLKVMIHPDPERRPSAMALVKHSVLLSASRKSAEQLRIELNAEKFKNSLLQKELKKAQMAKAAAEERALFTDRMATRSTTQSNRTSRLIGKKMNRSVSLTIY
T1 sequence (Q96SW2 whole entry): as the sequence (Q96SW2 whole entry) above
T1 sequence (Q16531 whole entry partner): as the sequence (Q16531 whole entry partner) above

Degradation of substrate protein IKZF2 (substrate protein remaining %) [2]	Degradation of substrate protein IKZF3 (substrate protein remaining %) [6]	SMILES	Degradation of substrate protein WEE1 (substrate protein remaining %) [1]	Degradation of substrate protein IKZF1 (substrate protein remaining %) [3]	Degradation of substrate protein GSPT1 (substrate protein remaining %) [4]	Degradation of substrate protein CK1α (substrate protein remaining %) [5]
A (0%≤substrate protein remaining %≤80%)	A (0%≤substrate protein remaining %≤80%)	NCc1ccc2c(c1)C(=O)N(N1CCC(=O)NC1=O)C2=O [GT-07968, 5-(aminomethyl)-2-(2,4-dioxotetrahydropyrimidin-1(2H)-yl)isoindoline-1,3-dione]	A (0%≤substrate protein remaining %≤80%)	A (0%≤substrate protein remaining %≤80%)	B (80%<substrate protein remaining %≤100%)	A (0%≤substrate protein remaining %≤80%)
A (0%≤substrate protein remaining %≤80%)	A (0%≤substrate protein remaining %≤80%)	O=C1CCN(N2Cc3c(O)cccc3C2=O)C(=O)N1 [GT-05570, 1-(4-hydroxy-1-oxoisoindolin-2-yl)dihydropyrimidine-2,4(1H, 3H)-dione]	A (0%≤substrate protein remaining %≤80%)	A (0%≤substrate protein remaining %≤80%)	A (0%≤substrate protein remaining %≤80%)	A (0%≤substrate protein remaining %≤80%)
A (0%≤substrate protein remaining %≤80%)	A (0%≤substrate protein remaining %≤80%)	O=CC1CCN(c2ccc3c(c2)C(=O)N(N2CCC(=O)NC2=O)C3=O)CC1 [GT-05580, 1-(2-(2,4-dioxotetrahydropyrimidin-1(2H)-yl)-1,3-dioxoisoindolin-5-yl)piperidine-4-carbaldehyde]	A (0%≤substrate protein remaining %≤80%)	B (80%<substrate protein remaining %≤100%)	A (0%≤substrate protein remaining %≤80%)	A (0%≤substrate protein remaining %≤80%)
A (0%≤substrate protein remaining %≤80%)	A (0%≤substrate protein remaining %≤80%)	O=C1CCN(N2C(=O)c3ccc(F)cc3C2=O)C(=O)N1 [GT-05575, 2-(2,4-dioxotetrahydropyrimidin-1(2H)-yl)-5-fluoroisoindoline-1,3-dione]	A (0%≤substrate protein remaining %≤80%)	B (80%<substrate protein remaining %≤100%)	A (0%≤substrate protein remaining %≤80%)	A (0%≤substrate protein remaining %≤80%)

SMILES	Degradation of substrate protein IKZF2 (substrate protein remaining %) [2]	Degradation of substrate protein IKZF3 (substrate protein remaining %) [6]	Degradation of substrate protein WEE1 (substrate protein remaining %) [1]	Degradation of substrate protein IKZF1 (substrate protein remaining %) [3]	Degradation of substrate protein GSPT1 (substrate protein remaining %) [4]	Degradation of substrate protein CK1α (substrate protein remaining %) [5]
O=C1CCN(N2C(=O)c3ccc(N4CC5CCC(C4)N5)cc3C2=O)C(=O)N1 [GT-05589, 5-(3,8-diazabicyclo[3.2.1]octan-3-yl)-2-(2,4-dioxotetrahydropyrimidin-1(2H)-yl)isoindoline-1,3-dione]	B (80%<substrate protein remaining %≤100%)	A (0%≤substrate protein remaining %≤80%)	B (80%<substrate protein remaining %≤100%)	B (80%<substrate protein remaining %≤100%)	B (80%<substrate protein remaining %≤100%)	B (80%<substrate protein remaining %≤100%)
O=C1CCN(N2C(=O)c3ccc(N4CCC(N5CCNCC5)CC4)cc3C2=O)C(=O)N1 [GT-05594, 2-(2,4-dioxotetrahydropyrimidin-1(2H)-yl)-5-(4-(piperazin-1-yl)piperidin-1-yl)isoindoline-1,3-dione]	A (0%≤substrate protein remaining %≤80%)	B (80%<substrate protein remaining %≤100%)	B (80%<substrate protein remaining %≤100%)	B (80%<substrate protein remaining %≤100%)	A (0%≤substrate protein remaining %≤80%)	B (80%<substrate protein remaining %≤100%)
O=CC1CCN(C2CCN(c3ccc4c(c3)C(=O)N(N3CCC(=O)NC3=O)C4=O)CC2)CC1 [GT-05595, 1′-(2-(2,4-dioxotetrahydropyrimidin-1(2H)-yl)-1,3-dioxoisoindolin-5-yl)-[1,4′-bipiperidine]-4-carbaldehyde]	A (0%≤substrate protein remaining %≤80%)	B (80%<substrate protein remaining %≤100%)	B (80%<substrate protein remaining %≤100%)	B (80%<substrate protein remaining %≤100%)	B (80%<substrate protein remaining %≤100%)	B (80%<substrate protein remaining %≤100%)
O=C1CCN(N2C(=O)c3ccc(Br)cc3C2=O)C(=O)N1 [GT-04511, 5-bromo-2-(2,4-dioxotetrahydropyrimidin-1(2H)-yl)isoindoline-1,3-dione]	B (80%<substrate protein remaining %≤100%)	B (80%<substrate protein remaining %≤100%)	B (80%<substrate protein remaining %≤100%)	B (80%<substrate protein remaining %≤100%)	A (0%≤substrate protein remaining %≤80%)	B (80%<substrate protein remaining %≤100%)
O=CC1CCN(c2cccc3c2C(=O)N(N2CCC(=O)NC2=O)C3=O)CC1 [GT-05590, 1-(2-(2,4-dioxotetrahydropyrimidin-1(2H)-yl)-1,3-dioxoisoindolin-4-yl)piperidine-4-carbaldehyde]	B (80%<substrate protein remaining %≤100%)	A (0%≤substrate protein remaining %≤80%)	B (80%<substrate protein remaining %≤100%)	B (80%<substrate protein remaining %≤100%)	B (80%<substrate protein remaining %≤100%)	B (80%<substrate protein remaining %≤100%)
O=C1CCN(N2C(=O)c3ccc(N4CCNCC4)c(F)c3C2=O)C(=O)N1 [GT-05592, 2-(2,4-dioxotetrahydropyrimidin-1(2H)-yl)-4-fluoro-5-(piperazin-1-yl)isoindoline-1,3-dione]	B (80%<substrate protein remaining %≤100%)	A (0%≤substrate protein remaining %≤80%)	B (80%<substrate protein remaining %≤100%)	B (80%<substrate protein remaining %≤100%)	B (80%<substrate protein remaining %≤100%)	B (80%<substrate protein remaining %≤100%)
O=C1CCN(N2C(=O)c3cccc(N4CCNCC4)c3C2=O)C(=O)N1 [GT-05591, 2-(2,4-dioxotetrahydropyrimidin-1(2H)-yl)-4-(piperazin-1-yl)isoindoline-1,3-dione]	B (80%<substrate protein remaining %≤100%)	A (0%≤substrate protein remaining %≤80%)	B (80%<substrate protein remaining %≤100%)	B (80%<substrate protein remaining %≤100%)	B (80%<substrate protein remaining %≤100%)	B (80%<substrate protein remaining %≤100%)

Source: patent US20260364184A1, “COMPOUND BASED ON OXOISOINDOLINYL-SUBSTITUTED TETRAHYDROPYRIMIDINE-DIONE AND USE THEREOF” (GLUETACS THERAPEUTICS (SHANGHAI) CO., LTD., priority 2023, published 2026)
